This is an account of results in patent US20060293351A1, “Promotion of wound healing” (priority 1999, published 2006).

Data set [1] has as its system collagen α1(I) gene. As to the kind of experiment: Collagen α1(I) gene expression at the stricture site (in situ hybridization, image analysis). It counts as in vivo, rats. As to conditions: after coagulation treatment, 3 biopsies for each type of treatment. The procedure:
The experiments were performed as follows. First, urethral catherization was performed on tile rats with a 23 G Quik-Cath (Baxter, Ireland) sheath. A spinal needle was inserted into the sheath, and was used to apply a coagulation current at a level of 10 W to the outer end of the needle for 1 second at three locations, 8, 10 and 12 mm from the meatus, in order to produce urethral strictures. Halofuginone was given for 7 days starting at the day of stricture formation, either orally at concentrations of 1 ppm and 5 ppm in the diet, or by injection of 0.03% Halofuginone dissolved in 2% lignocaine directly into the urethra once a day. After 21 days, the rats were sacrificed and the sutures were reopened to determine the level of urethral stricture formation, at which time biopsies of the tissue were taken. For hybridization with the genetic probe, the sections were deparafinized in xylene, rehydrated through a graded series of ethanol solutions, rinsed in distilled water for 5 minutes and then incubated in 2×SSC at 70° C. for 30 minutes. The sections were then rinsed in distilled water and treated with pronase, 0.125 mg/ml in 50 mM Tris-HCl, 5 mM EDTA, pH 7.5, for 10 minutes. Alter digestion, the slides were rinsed with distilled water, post-fixed in 10% formalin in PBS and blocked in 0.2% glycine. […] Alkaline phosphatase activity was detected in the sections as previously described [Knopov. […]

The test system of data set [2] is collagen type III. The data set can be described thus: Collagen type III immunohistochemistry at the stricture site. It counts as in vivo, rats. The following applies: diet containing Halofuginone after coagulation current treatment. The procedure:
Immunohistochemistry with antibodies to collagen type III was performed on biopsies taken from control, untreated rats, rats treated with coagulation current alone and rats fed a diet containing Halofuginone after coagulation current treatment. […] The experimental method was as follows. Rats were treated and sections of biopsy tissue were prepared as described previously in Example 4. Immunohistochemistry was performed with primary antibodies against collagen type III (BioGenex. San Ramon, Calif., USA) and a Histomouse SP kit (Zymed Laboratories Inc., South San Francisco, Calif., USA) for the secondary antibodies. The primary antibodies were used in a 1:1000 dilution and detection was performed with the Histomouse SP kit according to the instructions of the manufacturer.

Data set [3] concerns skin wound. The data set can be described thus: Wound strength (bursting point, Instron tensiometer). It counts as in vivo, rats. The following applies: irradiated or not; one or six injections. Here is the method:
Wound strength was assessed by preparing rats substantially as described above, except that one group of rats (not irradiated) only received one injection of Halofuginone after wounding. The strength of wounds was measured as follows. First, a square of skin which was approximately 20 mm long and 16 mm wide, and which included the main part of the wound, was excised from sacrificed rats. Next, the skin was cut, perpendicular to the wound, to yield 7 strips of skin, each of which was 2 mm wide. The skin strips were secured between paper reinforcement frames and loaded on an Instron tensiometer for stretching at a constant rate of 25 mm/min. The bursting point was then recorded.

For data set [4], the system named is fibroblasts derived from rat urethra. As to the kind of experiment: cells. It counts as cell-based. Here is the method:
Urethral fibroblasts were obtained from three normal male rats, and were processed under sterile conditions. The urethra was cut into 1-2 mm pieces and rinsed several times in a solution containing 0.2 ml/10 ml penicillin/streptomycin and 50 micrograms/ml gentamycin. Each piece of urethra was placed in a 1 ml well of a 24 well plate (Greiner Labortchnik, Germany). Each well was filled with DMEM (Dulbecco's Modified Eagle's Medium), containing […] of D-glucose. 25% FCS (fetal calf serum), 0.1 ml/10 ml penicillin/streptomycin, 0.1 ml/10 ml glutamine. 50 micrograms/ml gentamycin and 2.5 micrograms/ml amphotericin B. The wells were incubated in an incubator containing 5% CO2 at 37° C. Half of the medium was replaced after 10 days. Two to three days later the cultures were trypsinized with trypsin-EDTA medium. The content of each pair of wells was combined, resuspended in DMEM and placed into one 250-ml flask containing 5 ml of medium. When the cell cultures reached confluency, they were transferred to new flasks with a 1:5 ratio of old to new medium. The concentration of FCS was then decreased to 10%.
For the evaluation of the synthesis of CDP and NCDP, cells were incubated for 24 hours with various concentrations of Halofuginone in 0.5 m glutamine-free DMEM containing 5% FCS, ascorbic acid (50 micrograms/ml), β-aminopropionitrile (50 micrograms/ml) and 2 micro-curies of [^3H]proline. At the end of the incubation period, the medium was decanted and incubated with or without collagenase for 18 hours, followed by TCA precipitation. The amount of radiolabeled collagen was estimated as the difference between total [^3H]proline containing proteins and protein remaining after collagenase digestion.

Take `O=C(CC1NCCC[C@H]1O)Cn1cnc2cc(Br)c(Cl)cc2c1=O` (stereo partly drawn) [Halofuginone]: the “reduction in the expression of the collagen α1(I) gene” value in data set [1] is 5.3 fold. Also, the “levels of collagen type III” value in data set [2] is “No significant changes”. Moreover, the wound strength result in data set [3] is given as “did not reduce wound strength”. In addition, the number of cells result in data set [4] was “did not affect”. For the same compound, in data set [4] (24 hours incubation), the “appearance of non-collagenase digestible proteins (NCDP)” value is “did not affect”. The inhibition at 0.01 µM in data set [4] (Rattus norvegicus, Fibroblast, 10^−8 M Halofuginone, 24 hours, read-out: inhibition of the levels of collagenase-digestible proteins (CDP)) came to 40%.
